Measured values from patent publication US10570179B2, “Substituted urea depsipeptide analogs as activators of the CLPP endopeptidase” (priority 2016, dated 2020).
Values after ≈ are worked out from the molar mass of the structure shown. Read-outs that look alike come from different tables or passages of the source. Numbered stars: 1 amine (or outer) side, 2 acyl side, 3 side chain; on linkers, the order of the positions; unused ones are H or OH. Bridge positions count the residues as written; N and C are the ends. Square brackets hold non-standard residues; d marks the D form. Peptide text beside a SMILES is read from it. * marks the point of attachment. Phe(3,5-F2) = N[C@@H](Cc1cc(F)cc(F)c1)C(=O)O; NH(1-Me-indolin-5-yl) = CN1CCc2cc(N*)ccc21; X6 = O=C([C@@H]1CS(=O)(=O)CCN1[*:1])[*:2]; Morpholine(3S-CO) = O=C(O)[C@@H]1COCCN1; Phe(3-Me) = Cc1cccc(C[C@H](N)C(=O)O)c1; Pro(4S-Me) = C[C@@H]1CN[C@H](C(=O)O)C1; NH(4-Cl-2-F-phenyl) = Fc1cc(Cl)ccc1N*; Pro(4R-Me) = C[C@H]1CN[C@H](C(=O)O)C1; X1 = O=C([C@@H]1CSCCN1[*:1])[*:2]; Hyp = O=C(O)[C@@H]1C[C@@H](O)CN1; NH(4-Me-phenyl) = Cc1ccc(N*)cc1; aThr = C[C@H](O)[C@H](N)C(=O)O; Pip = O=C(O)[C@@H]1CCCCN1; CO = O=C([*:1])[*:2]

How the values were obtained:
S. aureus ΔClpP = test: Minimal inhibitory concentration, microbroth dilution; assay type: cell-based, Staphylococcus aureus; conditions: MIC; ClpP inactivated
In short: (§1)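 MIC is recorded by eye as the lowest drug concentration that stops bacterial growth. Compound is serially diluted twofold in broth, starting at 200 μM final, and bacteria are added at roughly 10^5 cfu/mL. Incubation runs overnight at 37 °C under aerobic conditions, per CLSI guidance.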

E. faecails = test: as above; assay type: cell-based; conditions: Enterococcus faecalis
In short: as §1

MRSA NRS70 = test: as above; assay type: cell-based; conditions: Staphylococcus aureus
In short: as §1

S. aureus ATCC 29213 = test: as above; assay type: cell-based; conditions: Staphylococcus aureus
In short: as §1

S. aureus USA 300 = test: as above; assay type: cell-based; conditions: Staphylococcus aureus
In short: as §1

[1] = Microsomal metabolic stability; assay type: in vitro ADME, mouse
Experimental: Compounds were initially prepared by dissolving them into DMSO at a final concentration of 10 mM. NADPH regenerating solutions A and B and mouse liver microsomes (CD-1) were obtained from BD Gentest (Woburn, Mass.). Ninety-six well deep well plates were obtained from MidWest Scientific Inc (Valley Park, Mo.).
Sample preparation for microsomal stability was modified from methods of Di, L., et al., Int J Pharm. 2005 Jun. 13; 297(1-2):110-9. A set of incubation times of 0, 15, 30, 60, 120, and 240 minutes were used. Mouse liver microsomal solutions were prepared by adding 58 μL of concentrated human or mouse liver microsomes (20 mg/mL protein concentration) to 1.756 mL of 0.1 M potassium phosphate buffer (pH 7.4) and 5 μL of 0.5 M EDTA to make a 0.6381 mg/mL (protein) microsomal solution. NADPH regenerating agent contained 113 μL of NADPH A, 23 μL of NADPH B, and 315 μL of 0.1 M potassium phosphate buffer (pH 7.4). The diluted test compound solutions (2 μL) were each added directly to a 1.79 mL of liver microsomal solution. This solution was mixed and 90 μL was transferred to 6 time points plates (each in triplicate wells). For the time 0 plate, 225 μL of cold acetonitrile with internal standard ([…] warfarin) was added to each well, followed by addition of NADPH regenerating agent (22.5 μL) and no incubation. For other five time points' plate, NADPH regenerating agent (22.5 μL) was added to each well to initiate the reaction. The plates were incubated at 37° C. for the required time, followed by quenching of the reaction by adding 225 μL of cold acetonitrile with internal standard (4 μg/ml warfarin). All of the plates were sealed and mixed well at 600 rpm for 10 minutes followed by centrifugation at 4000 rpm for 20 minutes. The supernatants (120 μL) were transferred to analytical plates for analysis by LCMS. LCMS conditions were described in the materials and instrumentation section above. The metabolic stability is evaluated via the half-life from least-squares fit of the multiple time points based on first-order kinetics.

[2] = read-out: Minimal Inhibitory Concentrations (μM) E. faecails, MIC
[3] = read-out: Minimal Inhibitory Concentrations (μM) MRSA NRS70, MIC
[4] = ATCC29213, read-out: Minimal Inhibitory Concentrations (μM) S. aureus ATCC 29213, MIC
[5] = USA300, read-out: Minimal Inhibitory Concentrations (μM) S. aureus USA 300, MIC
[6] = microsomal metabolic stability half-life, mouse liver microsomes

Row | SMILES | Minimal Inhibitory Concentrations (μM) S. aureus ΔClpP (S. aureus ΔClpP) [µM] | MIC (E. faecails; [2]) [µM] | MIC (MRSA NRS70; [3]) [µM] | MIC (S. aureus ATCC 29213; [4]) [µM] | MIC (S. aureus USA 300; [5]) [µM] | Mouse [1, 6] | MIC (E. faecails; MIC, read-out: Minimal Inhibitory Concentrations (μM) E. faecails) [µM] | MIC (MRSA NRS70; MIC, read-out: Minimal Inhibitory Concentrations (μM) MRSA NRS70) [µM] | MIC (S. aureus ATCC 29213; ATCC29213, MIC, read-out: Minimal Inhibitory Concentrations (μM) S. aureus ATCC 29213) [µM] | MIC (S. aureus USA 300; USA300, MIC, read-out: Minimal Inhibitory Concentrations (μM) S. aureus USA 300) [µM] | Mouse ([1]; CD-1, mouse, pH 7.4)
1 | Cc1ccc(NC(=O)N[C@@H](Cc2cccc(C)c2)C(=O)N[C@@H]2C(=O)N3CCC[C@H]3C(=O)N3CCCC[C@H]3C(=O)N[C@@H](C)C(=O)N3C[C@@H](C)C[C@H]3C(=O)O[C@H]2C)cc1 [Compound 45, (S)-3-(M-TOLYL)-2-(3-(P-TOLYL)UREIDO)-N-((2S,6S,8AS,14AS,20S,21S,23AS)-2,6,21-TRIMETHYL-5,8,14,19,23-PENTAOXOOCTADECAHYDRO-1H,5H,14H,19H-PYRIDO[2,1-I]DIPYRROLO[2,1-C:2′,1′-L][1]OXA[4,7,10,13]TETRAAZACYCLOHEXADECIN-20-YL)PROPANAMIDE] ({NH(4-Me-phenyl)-CO}-[Phe(3-Me)][aThr]P[Pip]A[Pro(4S-Me)]; ester 2-C) | >20 | 1.25 (≈ 0.982 µg/mL) | 1.25 (≈ 0.982 µg/mL) | 1.25 (≈ 0.982 µg/mL) | 10 (≈ 7.86 µg/mL) | 2.35 ± 0.14 h | – | – | – | – | –
2 | Cc1cccc(C[C@H](NC(=O)Nc2ccc(Cl)cc2F)C(=O)N[C@@H]2C(=O)N3CCC[C@H]3C(=O)N3CCS(=O)(=O)C[C@H]3C(=O)N[C@@H](C)C(=O)N3C[C@H](C)C[C@H]3C(=O)O[C@H]2C)c1 [Compound 40, (S)-2-(3-(4-CHLORO-2-FLUOROPHENYL)UREIDO)-3-(M-TOLYL)-N-((6AS,12S,13S,15AS,17R,21S,23AR)-13,17,21-TRIMETHYL-2,2-DIOXIDO-6,11,15,20,23-PENTAOXOOCTADECAHYDRO-6H,11H,15H-DIPYRROLO[2,1-C:2′,1′-L][1,4]THIAZINO[3,4-I][1]OXA[4,7,10,13]TETRAAZACYCLOHEXADECIN-12-YL)PROPANAMIDE] ({NH(4-Cl-2-F-phenyl)-CO}-[Phe(3-Me)][aThr]P[X6]A[Pro(4R-Me)]; ester 2-C) | >20 | – | – | – | – | – | 0.625 (≈ 0.546 µg/mL) | 0.625 (≈ 0.546 µg/mL) | 1.25 (≈ 1.09 µg/mL) | 1.25 (≈ 1.09 µg/mL) | 6.54 ± .543 h
3 | C[C@@H]1C[C@H]2C(=O)O[C@@H](C)[C@H](NC(=O)[C@H](Cc3cc(F)cc(F)c3)NC(=O)Nc3ccc4c(c3)CCN4C)C(=O)N3CCC[C@H]3C(=O)N3CCOC[C@H]3C(=O)N[C@@H](C)C(=O)N2C1 [Compound 32] ({NH(1-Me-indolin-5-yl)-CO}-[Phe(3,5-F2)][aThr]P[Morpholine(3S-CO)]A[Pro(4R-Me)]; ester 2-C) | >20 | 0.039 (≈ 0.0332 µg/mL) | 0.078 (≈ 0.0664 µg/mL) | 0.156 (≈ 0.133 µg/mL) | 0.156 (≈ 0.133 µg/mL) | 0.95 ± .95 h | – | – | – | – | –
4 | Cc1ccc(NC(=O)N[C@@H](Cc2cccc(C)c2)C(=O)N[C@@H]2C(=O)N3C[C@H](O)C[C@H]3C(=O)N3CCSC[C@H]3C(=O)N[C@@H](C)C(=O)N3C[C@H](C)C[C@H]3C(=O)O[C@H]2C)cc1 [Compound 42, (S)—N-((6AS,8R,12S,13S,15AS,17R,21S,23AR)-8-HYDROXY-13,17,21-TRIMETHYL-6,11,15,20,23-PENTAOXOOCTADECAHYDRO-6H,11H,15H-DIPYRROLO[2,1-C:2′,1′-L][1,4]THIAZINO[3,4-I][1]OXA[4,7,10,13]TETRAAZACYCLOHEXADECIN-12-YL)-3-(M-TOLYL)-2-(3-(P-TOLYL)UREIDO)PROPANAMIDE] ({NH(4-Me-phenyl)-CO}-[Phe(3-Me)][aThr][Hyp][X1]A[Pro(4R-Me)]; ester 2-C) | >20 | 2.5 (≈ 2.05 µg/mL) | 1.25 (≈ 1.02 µg/mL) | 1.25 (≈ 1.02 µg/mL) | 2.5 (≈ 2.05 µg/mL) | 0.78 ± .783 h | – | – | – | – | –
